BindingDB's records for doi:10.1021/acs.jmedchem.6b01363 (Genentech, 2017)

target: Transcription factor p65 (Human, UniProt Q04206); test: Inhibition of TNF-alpha-stimulated RELA translocation from cytoplasm to nucleus in human HeLa cells preincubated for 4.5 hrs followed by TNF-alpha stimulation measured after 30 mins
Sequence (Q04206 whole entry): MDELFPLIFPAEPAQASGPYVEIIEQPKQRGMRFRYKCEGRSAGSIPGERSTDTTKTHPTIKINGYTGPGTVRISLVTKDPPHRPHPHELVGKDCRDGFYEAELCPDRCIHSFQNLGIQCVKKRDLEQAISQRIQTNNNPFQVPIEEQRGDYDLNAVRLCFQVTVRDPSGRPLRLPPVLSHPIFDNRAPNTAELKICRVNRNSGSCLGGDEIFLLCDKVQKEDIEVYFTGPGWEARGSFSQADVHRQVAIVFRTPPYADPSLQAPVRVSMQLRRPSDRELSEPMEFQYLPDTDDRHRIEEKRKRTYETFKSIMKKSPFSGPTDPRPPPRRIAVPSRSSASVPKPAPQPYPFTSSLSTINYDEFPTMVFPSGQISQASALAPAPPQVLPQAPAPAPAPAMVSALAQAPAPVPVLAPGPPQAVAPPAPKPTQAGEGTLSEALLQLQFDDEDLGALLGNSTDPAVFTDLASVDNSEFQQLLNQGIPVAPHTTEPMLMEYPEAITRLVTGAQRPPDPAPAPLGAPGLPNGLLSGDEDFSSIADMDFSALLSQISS

IC50, > 20 µM:
CNC(=O)c1c(C(N)=O)nc2n1CCOc1ccc(C#C[C@@](C)(O)c3cc(C)on3)cc1-2 [US9034866, 96]
Cc1cc([C@](C)(O)C#Cc2cc3c(cc2F)C2CC(C2)n2cc(C(N)=O)nc2-3)no1 [US9034866, 129]
Cc1cc([C@](C)(O)C#Cc2cc3c(cc2F)OCCn2cc(C(N)=O)nc2-3)no1 [US9034866, 6]
